Measurements: ChEMBL document CHEMBL4000244, “Probing A-form DNA: A fluorescent aminosugar probe and dual recognition by anthraquinone-neomycin conjugates” (Bioorg Med Chem, 2017)

What was measured:
[1] = Binding affinity to 5'-GCGCGGGC-3' DNA hairpin assessed as change in fluorescence intensity at 1 uM after 45 mins by fluorescence quenching analysis relative to control
[2] = Binding affinity to 5'-GGGGCCGC-3' DNA hairpin assessed as change in fluorescence intensity at 1 uM after 45 mins by fluorescence quenching analysis relative to control
[3] = Binding affinity to 5'-GGCGGCGG-3' DNA hairpin assessed as change in fluorescence intensity at 1 uM after 45 mins by fluorescence quenching analysis relative to control
[4] = Binding affinity to 5'-CCGGGGGG-3' DNA hairpin assessed as change in fluorescence intensity at 1 uM after 45 mins by fluorescence quenching analysis relative to control
[5] = Binding affinity to 5'-GCCCGGGG-3' DNA hairpin assessed as change in fluorescence intensity at 1 uM after 45 mins by fluorescence quenching analysis relative to control
[6] = Binding affinity to 5'-GCCGGGCC-3' DNA hairpin assessed as change in fluorescence intensity at 1 uM after 45 mins by fluorescence quenching analysis relative to control
[7] = Binding affinity to 5'-GCGGCGCG-3' DNA hairpin assessed as change in fluorescence intensity at 1 uM after 45 mins by fluorescence quenching analysis relative to control
[8] = Binding affinity to 5'-CCGGCGGG-3' DNA hairpin assessed as change in fluorescence intensity at 1 uM after 45 mins by fluorescence quenching analysis relative to control
[9] = Binding affinity to 5'-CGCCGGGG-3' DNA hairpin assessed as change in fluorescence intensity at 1 uM after 45 mins by fluorescence quenching analysis relative to control
[10] = Binding affinity to 5'-CGGGCCGG-3' DNA hairpin assessed as change in fluorescence intensity at 1 uM after 45 mins by fluorescence quenching analysis relative to control
[11] = Binding affinity to 5'-CCCCGCGG-3' DNA hairpin assessed as change in fluorescence intensity at 1 uM after 45 mins by fluorescence quenching analysis relative to control
[12] = Binding affinity to 5'-GGGCCCGG-3' DNA hairpin assessed as change in fluorescence intensity at 1 uM after 45 mins by fluorescence quenching analysis relative to control
[13] = Binding affinity to 5'-GCGCCGGC-3' DNA hairpin assessed as change in fluorescence intensity at 1 uM after 45 mins by fluorescence quenching analysis relative to control
[14] = Binding affinity to 5'-CCGGCCCG-3' DNA hairpin assessed as change in fluorescence intensity at 1 uM after 45 mins by fluorescence quenching analysis relative to control
[15] = Binding affinity to 5'-CGGCGCGC-3' DNA hairpin assessed as change in fluorescence intensity at 1 uM after 45 mins by fluorescence quenching analysis relative to control
[16] = Binding affinity to 5'-GCCCGGGC-3' DNA hairpin assessed as change in fluorescence intensity at 1 uM after 45 mins by fluorescence quenching analysis relative to control
[17] = Binding affinity to 5'-CGGGGCCG-3' DNA hairpin assessed as change in fluorescence intensity at 1 uM after 45 mins by fluorescence quenching analysis relative to control
[18] = Binding affinity to 5'-CGCGCCCG-3' DNA hairpin assessed as change in fluorescence intensity at 1 uM after 45 mins by fluorescence quenching analysis relative to control
[19] = Binding affinity to 5'-CCCGCGCG-3' DNA hairpin assessed as change in fluorescence intensity at 1 uM after 45 mins by fluorescence quenching analysis relative to control
[20] = Binding affinity to 5'-CCGCCGCG-3' DNA hairpin assessed as change in fluorescence intensity at 1 uM after 45 mins by fluorescence quenching analysis relative to control
[21] = Binding affinity to 5'-CGGGGGGG-3' DNA hairpin assessed as change in fluorescence intensity at 1 uM after 45 mins by fluorescence quenching analysis relative to control
[22] = Binding affinity to 5'-CCCGCCGC-3' DNA hairpin assessed as change in fluorescence intensity at 1 uM after 45 mins by fluorescence quenching analysis relative to control
[23] = Binding affinity to 5'-CCGGGCCC-3' DNA hairpin assessed as change in fluorescence intensity at 1 uM after 45 mins by fluorescence quenching analysis relative to control
[24] = Binding affinity to 5'-CGCCGGGC-3' DNA hairpin assessed as change in fluorescence intensity at 1 uM after 45 mins by fluorescence quenching analysis relative to control
[25] = Binding affinity to 5'-CCGGGGGC-3' DNA hairpin assessed as change in fluorescence intensity at 1 uM after 45 mins by fluorescence quenching analysis relative to control
[26] = Binding affinity to 5'-CGCCCCCC-3' DNA hairpin assessed as change in fluorescence intensity at 1 uM after 45 mins by fluorescence quenching analysis relative to control
[27] = Binding affinity to 5'-GCCCCGGG-3' DNA hairpin assessed as change in fluorescence intensity at 1 uM after 45 mins by fluorescence quenching analysis relative to control
[28] = Binding affinity to 5'-GCCCGGCG-3' DNA hairpin assessed as change in fluorescence intensity at 1 uM after 45 mins by fluorescence quenching analysis relative to control
[29] = Binding affinity to 5'-CCCCGCCG-3' DNA hairpin assessed as change in fluorescence intensity at 1 uM after 45 mins by fluorescence quenching analysis relative to control
[30] = Binding affinity to 5'-CGCCGCGG-3' DNA hairpin assessed as change in fluorescence intensity at 1 uM after 45 mins by fluorescence quenching analysis relative to control
[31] = Binding affinity to 5'-CCGCCGCC-3' DNA hairpin assessed as change in fluorescence intensity at 1 uM after 45 mins by fluorescence quenching analysis relative to control
[32] = Binding affinity to 5'-GGGGGGGC-3' DNA hairpin assessed as change in fluorescence intensity at 1 uM after 45 mins by fluorescence quenching analysis relative to control
[33] = Binding affinity to 5'-CGGCCCCG-3' DNA hairpin assessed as change in fluorescence intensity at 1 uM after 45 mins by fluorescence quenching analysis relative to control
[34] = Binding affinity to 5'-GGCGGCCC-3' DNA hairpin assessed as change in fluorescence intensity at 1 uM after 45 mins by fluorescence quenching analysis relative to control
[35] = Binding affinity to 5'-CGCGGGCG-3' DNA hairpin assessed as change in fluorescence intensity at 1 uM after 45 mins by fluorescence quenching analysis relative to control
[36] = Binding affinity to 5'-CGGGCCCG-3' DNA hairpin assessed as change in fluorescence intensity at 1 uM after 45 mins by fluorescence quenching analysis relative to control

Activity [1]: 51.8%
Activity [2]: 41.3%
Activity [3]: 46.8%
Activity [4]: 45.1%
Activity [5]: 38.8%
Activity [6]: 51%
Activity [7]: 45.8%
Activity [8]: 49.1%
Activity [9]: 47.3%
Activity [10]: 48.2%
Activity [11]: 53.3%
Activity [12]: 25.4%
Activity [13]: 55.1%
Activity [14]: 48%
Activity [15]: 46.2%
Activity [16]: 41.1%
Activity [17]: 41.1%
Activity [18]: 48.8%
Activity [19]: 51.8%
Activity [20]: 44%
Activity [21]: 35.9%
Activity [22]: 48.9%
Activity [23]: 38.9%
Activity [24]: 49.5%
Activity [25]: 38.4%
Activity [26]: 25.1%
Activity [27]: 28.8%
Activity [28]: 51.9%
Activity [29]: 41.4%
Activity [30]: 49.8%
Activity [31]: 52.2%
Activity [32]: 29.8%
Activity [33]: 33.2%
Activity [34]: 41.2%
Activity [35]: 47.5%
Activity [36]: 41.3%
SMILES: NCC1O[C@H](O[C@H]2[C@@H](O)[C@H](O[C@@H]3[C@@H](O)[C@H](N)C[C@H](N)[C@H]3O[C@H]3O[C@H](CN)[C@@H](O)[C@H](O)[C@H]3N)O[C@@H]2CSCCNC(=O)CCSCC(=O)Nc2ccc(-c3c4ccc(=O)cc-4oc4cc(O)ccc34)c(C(=O)O)c2)[C@H](N)[C@@H](O)[C@@H]1O (stereo partly specified)
